Patent publication US20070293560A1, “Compounds and compositions” (priority 2006, published 2007)
Values belong to the compound of their own block, whether it stands above or below them.

Tests used:
m-calpain = target: T1, m-calpain (Homo sapiens, UniProt P17655); test: m-calpain inhibition, fluorescence-based assay with BODIPY-casein substrate; format: biochemical
T1 sequence (P17655 1-700): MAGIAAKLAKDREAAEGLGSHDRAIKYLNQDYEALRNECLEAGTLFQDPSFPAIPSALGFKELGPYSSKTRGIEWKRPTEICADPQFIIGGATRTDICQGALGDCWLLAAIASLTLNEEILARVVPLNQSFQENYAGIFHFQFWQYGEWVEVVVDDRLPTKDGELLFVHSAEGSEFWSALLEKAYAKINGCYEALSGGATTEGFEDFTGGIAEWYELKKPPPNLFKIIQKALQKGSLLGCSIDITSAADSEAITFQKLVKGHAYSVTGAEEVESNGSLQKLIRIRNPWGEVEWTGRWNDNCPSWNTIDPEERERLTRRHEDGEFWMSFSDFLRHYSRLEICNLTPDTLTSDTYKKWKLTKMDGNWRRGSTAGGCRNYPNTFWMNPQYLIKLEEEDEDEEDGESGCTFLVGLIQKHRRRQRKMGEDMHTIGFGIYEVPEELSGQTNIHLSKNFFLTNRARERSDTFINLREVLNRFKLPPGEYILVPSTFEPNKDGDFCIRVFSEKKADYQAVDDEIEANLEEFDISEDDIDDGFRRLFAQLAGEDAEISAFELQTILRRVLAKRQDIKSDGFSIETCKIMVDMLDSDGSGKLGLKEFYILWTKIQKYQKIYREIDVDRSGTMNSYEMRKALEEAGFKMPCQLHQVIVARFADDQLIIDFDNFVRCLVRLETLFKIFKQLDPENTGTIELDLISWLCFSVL
T1 sequence (P04632 1-268 partner): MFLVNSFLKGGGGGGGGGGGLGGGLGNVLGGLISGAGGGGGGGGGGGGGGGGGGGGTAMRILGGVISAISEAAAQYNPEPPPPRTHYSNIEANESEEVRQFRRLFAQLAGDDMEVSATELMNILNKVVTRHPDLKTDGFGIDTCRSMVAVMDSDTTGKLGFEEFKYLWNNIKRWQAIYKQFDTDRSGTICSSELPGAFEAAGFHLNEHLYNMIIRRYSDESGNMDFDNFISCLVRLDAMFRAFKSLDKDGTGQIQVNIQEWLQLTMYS
Method: The peptidic alcohol 3 and aldehyde 6 were assayed against m-calpain using a BODIPY-casein substrate in the fluorescence-based assay procedure of V. F. Thompson, S. Saldana, J. Cong and D. E. Goll, Anal. Biochem. 2000, 279, 170.
The results of the enzyme inhibition assay for 3 and 6 are graphically represented in FIGS. 1 and 2, respectively.

[1] = Ovine cornea penetration, modified Ussing chamber and LCMS; format: in vitro ADME; details: adult ovine cornea, Ussing chamber, 37° C., 3 hours, LCMS
Method: The peptidic aldehyde 6 was assayed for ovine cornea penetration using a modified Ussing chamber and LCMS based on the procedure of Youn Bok Chung, Kun Han and Vincent H. L. Lee, Pharmaceutical Research, 2000, 15, 1882. Compound 6 (3.5 mg) was dissolved in buffer A (5 mL) and added to the epithelial side a modified Ussing chamber with a pre-mounted adult ovine cornea. Buffer B (5 mL) was added to the endothelial side of the chamber and the whole chamber was incubated 37° C. for 3 hours, 5% CO2. Samples were taken from both sides of the chamber at time=0 and 180 minutes. The samples were analysed for compound 6 using LCMS.

adult ovine lens = test: In vitro lens culture assay, calcium induced cataract; format: cell-based; details: ovine lens preincubated with 0.8 μM for 2 hours, then 5 mM calcium chloride for 20 hours
Method: The ability of the peptidic aldehyde 6 to prevent the formation of a calcium induced cataract in adult ovine lens was assayed using the procedure of J. Sanderson, J. M. Marciantonio and G. A. Duncan, Invest. Opth. Vis. Sci. 2000, 41, 2255. Three pairs of lenses were tested. One lens from each pair was preincubated with [0.8 μM] 6 for 2 hours while the other was incubated in EMEM-culture media at 35° C., 5% CO2. Then 5 mM calcium chloride was added onto both the inhibitor treated lens and the other lens, and both lenses were then incubated for 20 hours. One pair of lenses was photographed when the assay had been completed.

cataracts = test: In vivo cataract progression in lambs, ointment on the eye; set-up: species or system lamb; details: 1% ointment (25 mg) twice daily, 24 lambs
Method: An ointment (25 mg) comprising 1% of the peptidic aldehyde 6 was applied twice daily to the left eye of 24 lambs for three months starting when they were two to three months old. The progression of cataracts was determined by a veterinary opthalmologist with a slit-lamp microscope.

[2] = In vivo eye irritation in a lamb after ointment application; details: 1% ointment (50 mg) applied to one eye of a lamb, three times in one day
Method: (§1) An ointment (50 mg) comprising 1% of the peptidic aldehyde 6 was applied to one eye of a lamb, three times in one day.

[3] = Detection of 6 in ovine body parts by LCMS after ointment application to one eye; format: in vivo, lamb; details: for Compound 6 detected: 1% ointment 50 mg three times in one day
Method: as §1
Various body parts were assayed for trace amounts of 6 by LCMS using a method similar to that described by A. Maltese and C. Bucolo, Biomedical Chromatography 2000, 16, 274. A rapid high-performance liquid chromatographic method using a C18 reversed-phase column with UV detection at 254 nm was used for the analysis of 6 in ovine samples. A water solution containing 2% ZnSO4.7H2O was used to deproteinise the samples. The mobile phase consisted of CH3CN and H2O containing 0.05% TFA.

SMILES: CC(C)C[C@@H](CO)NC(=O)[C@@H](NC(=O)c1ccc(C=O)o1)C(C)C [Compound 4, 5-Formyl-furan-2-carboxylic acid [(S)-1-((S)-1-hydroxymethyl-3-methyl-butylcarbamoyl)-2-methyl-propyl]-amide]
IC50 (m-calpain): 120 µM

SMILES: CC(C)C[C@@H](CO)NC(=O)[C@@H](NC(=O)c1ccc(C=O)o1)C(C)C [Compound 7, 5-Formyl-furan-2-carboxylic acid [(S)-1-((S)-1-hydroxymethyl-3-methyl-butylcarbamoyl)-2-methyl-propyl]-amide]
melting point: 46 to 48 °C

The next lines start with results.

IC50 (m-calpain): 30.4 µM
SMILES: CC(C)C[C@@H](CO)NC(=O)[C@@H](NC(=O)c1ccc(C=O)s1)C(C)C [Compound 5, 5-Formyl-thiophene-2-carboxylic acid [(S)-1-((S)-1-hydroxymethyl-3-methyl-butylcarbamoyl)-2-methyl-propyl]-amide]

IC50 (m-calpain): 0.03 µM
Cornea penetration [1]: yes
Amount detected ([3]; Aqueous humour (treated eye)): 8 ng
Compound 6 detected ([3]; Aqueous humour (treated eye)): yes
Compound 6 detected ([3]; Kidney): no
Amount detected ([3]; Lens (treated eye)): 6 ng
Compound 6 detected ([3]; Lens (treated eye)): yes
Compound 6 detected ([3]; Liver): no
Compound 6 detected ([3]; Plasma): no
Amount detected ([3]; Vitreous humour (treated eye)): 4 ng
Compound 6 detected ([3]; Vitreous humour (treated eye)): yes
SMILES: CC(C)C[C@@H](C=O)NC(=O)[C@@H](NC(=O)c1ccc(C=O)[nH]1)C(C)C [Compound 6, 5-Formyl-1H-pyrrole-2-carboxylic acid [(S)-1-((S)-1-formyl-3-methyl-butylcarbamoyl)-2-methyl-propyl]-amide]
Inhibition of cataract formation (adult ovine lens): yes
Cataract progression, treated left eye (cataracts; first month following treatment (p<0.05)): significantly slower cataract progression
Cataract progression, treated versus untreated eyes (cataracts; following two months): no significant differences
Eye irritation [2]: No sign of irritation

IC50 (m-calpain): 0.97 µM
SMILES: CC(C)C[C@@H](CO)NC(=O)[C@@H](NC(=O)c1ccc(C=O)[nH]1)C(C)C [Compound 3, 5-Formyl-1H-pyrrole-2-carboxylic acid [(S)-1-((S)-1-hydroxymethyl-3-methyl-butylcarbamoyl)-2-methyl-propyl]-amide]
